Laboratory results taken from ChEMBL document CHEMBL3045446, “In vitro antimicrobial and antimycobacterial activity of some chalcones and their derivatives” (2013).
≈ marks a conversion by molar mass, not a printed value. Calls of active or inactive are those of the source. No cut-off for these calls is given here.

How the values were obtained:
Candida albicans [1] = assay: Antimicrobial activity against Candida albicans MTCC 183 assessed as growth inhibition after 48 hr by agar streak dilution method; format: functional; conditions: MTCC 183, 48 h
Escherichia coli [2] = assay: Antimicrobial activity against Escherichia coli MTCC 739 assessed as growth inhibition after 24 hr by agar streak dilution method; format: functional; conditions: MTCC 739, 24 h
Aspergillus fumigatus [3] = assay: Antimicrobial activity against Aspergillus fumigatus MTCC 343 assessed as diameter of growth inhibition zone after 48 hr; format: functional
Shigella flexneri [4] = assay: Antimicrobial activity against Shigella flexneri MTCC1457 assessed as growth inhibition after 24 hr by agar streak dilution method; format: functional; conditions: MTCC1457, 24 h
Staphylococcus aureus [5] = assay: Antimicrobial activity against Staphylococcus aureus MTCC 96 assessed as growth inhibition after 24 hr by agar streak dilution method; format: functional; conditions: MTCC 96, 24 h
Aspergillus clavatus [6] = assay: Antimicrobial activity against Aspergillus clavatus MTCC 1323 assessed as diameter of growth inhibition zone after 48 hr; format: functional
Escherichia coli [7] = assay: Antimicrobial activity against Escherichia coli MTCC 739 assessed as diameter of growth inhibition zone after 24 hr; format: functional
Klebsiella pneumoniae [8] = assay: Antimicrobial activity against Klebsiella pneumoniae MTCC 109 assessed as diameter of growth inhibition zone after 24 hr; format: functional
Salmonella typhi [9] = assay: Antimicrobial activity against Salmonella enterica subsp. enterica serovar Typhi MTCC 733 assessed as diameter of growth inhibition zone after 24 hr; format: functional
Candida albicans [10] = assay: Antimicrobial activity against Candida albicans MTCC 183 assessed as diameter of growth inhibition zone after 48 hr; format: functional
Pseudomonas aeruginosa [11] = assay: Antimicrobial activity against Pseudomonas aeruginosa MTCC 741 assessed as growth inhibition at 100 ug/ml after 24 hr by agar streak dilution method; format: functional, organism-based
Aspergillus niger [12] = assay: Antimicrobial activity against Aspergillus niger MTCC 282 assessed as diameter of growth inhibition zone after 48 hr; format: functional
Aspergillus clavatus [13] = assay: Antimicrobial activity against Aspergillus clavatus MTCC 1323 assessed as growth inhibition after 48 hr by agar streak dilution method; format: functional; conditions: MTCC 1323, 48 h
Klebsiella pneumoniae [14] = assay: Antimicrobial activity against Klebsiella pneumoniae MTCC 109 assessed as growth inhibition after 24 hr by agar streak dilution method; format: functional; conditions: MTCC 109, 24 h
Shigella flexneri [15] = assay: Antimicrobial activity against Shigella flexneri MTCC1457 assessed as diameter of growth inhibition zone after 24 hr; format: functional
Aspergillus niger [16] = assay: Antimicrobial activity against Aspergillus niger MTCC 282 assessed as growth inhibition after 48 hr by agar streak dilution method; format: functional; conditions: MTCC 282, 48 h
Staphylococcus aureus [17] = assay: Antimicrobial activity against Staphylococcus aureus MTCC 96 assessed as diameter of growth inhibition zone after 24 hr; format: functional
[18] = tested on: Mycobacterium tuberculosis; assay: Antituberculosis activity against Mycobacterium tuberculosis H37Rv assessed as growth inhibition after 12 to 28 days by L-J MIC method; format: functional; conditions: for MIC: Mycobacterium tuberculosis, H37Rv
Bacillus cereus [19] = assay: Antimicrobial activity against Bacillus cereus MTCC 430 assessed as growth inhibition at 100 ug/ml after 24 hr by agar streak dilution method; format: functional, organism-based
Aspergillus fumigatus [20] = assay: Antimicrobial activity against Aspergillus fumigatus MTCC 343 assessed as growth inhibition after 48 hr by agar streak dilution method; format: functional; conditions: MTCC 343, 48 h
Proteus vulgaris [21] = assay: Antimicrobial activity against Proteus vulgaris MTCC 1771 assessed as growth inhibition at 100 ug/ml after 24 hr by agar streak dilution method; format: functional, organism-based
Salmonella typhi [22] = assay: Antimicrobial activity against Salmonella enterica subsp. enterica serovar Typhi MTCC 733 assessed as growth inhibition after 24 hr by agar streak dilution method; format: functional; conditions: MTCC 733, 24 h
Shigella flexneri [23] = assay: Antimicrobial activity against Shigella flexneri MTCC1457 assessed as growth inhibition at 100 ug/ml after 24 hr by agar streak dilution method; format: functional, organism-based
Staphylococcus aureus [24] = assay: Antimicrobial activity against Staphylococcus aureus MTCC 96 assessed as growth inhibition at 100 ug/ml after 24 hr by agar streak dilution method; format: functional, organism-based
Bacillus cereus [25] = assay: Antimicrobial activity against Bacillus cereus MTCC 430 assessed as growth inhibition after 24 hr by agar streak dilution method; format: functional; conditions: MTCC 430, 24 h
Bacillus cereus [26] = assay: Antimicrobial activity against Bacillus cereus MTCC 430 assessed as diameter of growth inhibition zone after 24 hr; format: functional
Escherichia coli [27] = assay: Antimicrobial activity against Escherichia coli MTCC 739 assessed as growth inhibition at 100 ug/ml after 24 hr by agar streak dilution method; format: functional, organism-based
Proteus vulgaris [28] = assay: Antimicrobial activity against Proteus vulgaris MTCC 1771 assessed as diameter of growth inhibition zone after 24 hr; format: functional
Pseudomonas aeruginosa [29] = assay: Antimicrobial activity against Pseudomonas aeruginosa MTCC 741 assessed as diameter of growth inhibition zone after 24 hr; format: functional
Pseudomonas aeruginosa [30] = assay: Antimicrobial activity against Pseudomonas aeruginosa MTCC 741 assessed as growth inhibition after 24 hr by agar streak dilution method; format: functional; conditions: MTCC 741, 24 h
Proteus vulgaris [31] = assay: Antimicrobial activity against Proteus vulgaris MTCC 1771 assessed as growth inhibition after 24 hr by agar streak dilution method; format: functional; conditions: MTCC 1771, 24 h

| SMILES | MIC (Candida albicans [1]) [µg/mL] | MIC (Escherichia coli [2]) [µg/mL] | diameter of the inhibition zone (DIZ) (Aspergillus fumigatus [3]) [mm] | MIC (Shigella flexneri [4]) [µg/mL] | MIC (Staphylococcus aureus [5]) [µg/mL] | diameter of the inhibition zone (DIZ) (Aspergillus clavatus [6]) [mm] | diameter of the inhibition zone (DIZ) (Escherichia coli [7]) [mm] | diameter of the inhibition zone (DIZ) (Klebsiella pneumoniae [8]) [mm] | diameter of the inhibition zone (DIZ) (Salmonella typhi [9]) [mm] | diameter of the inhibition zone (DIZ) (Candida albicans [10]) [mm] | growth inhibition (GI) (Pseudomonas aeruginosa [11]) | diameter of the inhibition zone (DIZ) (Aspergillus niger [12]) [mm] | MIC (Aspergillus clavatus [13]) [µg/mL] | MIC (Klebsiella pneumoniae [14]) [µg/mL] | diameter of the inhibition zone (DIZ) (Shigella flexneri [15]) [mm] | MIC (Aspergillus niger [16]) [µg/mL] | growth inhibition (GI) [18] [%] | MIC [18] [µg/mL] | MIC (Aspergillus fumigatus [20]) [µg/mL] | MIC (Salmonella typhi [22]) [µg/mL] | also measured |
| --- | --- | --- | --- | --- | --- | --- | --- | --- | --- | --- | --- | --- | --- | --- | --- | --- | --- | --- | --- | --- | --- |
| O=C(/C=C/c1ccc([N+](=O)[O-])cc1)c1ccc(Nc2cc(=O)oc3ccccc23)cc1 | 100 (≈ 242 µM) | 100 (≈ 242 µM) | <10 | 100 (≈ 242 µM) | 100 (≈ 242 µM) | 12 | <10 | 11 | 14 | 10 | inactive | 11 | 100 (≈ 242 µM) | 100 (≈ 242 µM) | 13 | 100 (≈ 242 µM) | 95 | 1000 (≈ 2420 µM) | 100 (≈ 242 µM) | 100 (≈ 242 µM) | diameter of the inhibition zone (DIZ) (Staphylococcus aureus [17]): <10 mm; growth inhibition (GI) (Bacillus cereus [19]): inactive; growth inhibition (GI) (Proteus vulgaris [21]): inactive |
| O=C(/C=C/c1ccccc1)c1ccc(Nc2cc(=O)oc3ccccc23)cc1 | 100 (≈ 272 µM) | – | 12 | – | – | 15 | – | <10 | 11 | <10 | inactive | <10 | 100 (≈ 272 µM) | 100 (≈ 272 µM) | – | 100 (≈ 272 µM) | 95 | 1000 (≈ 2720 µM) | 100 (≈ 272 µM) | 100 (≈ 272 µM) | growth inhibition (GI) (Shigella flexneri [23]): inactive; growth inhibition (GI) (Staphylococcus aureus [24]): inactive; MIC (Bacillus cereus [25]): 100 µg/mL (≈ 272 µM); diameter of the inhibition zone (DIZ) (Bacillus cereus [26]): <10 mm; growth inhibition (GI) (Proteus vulgaris [21]): inactive; growth inhibition (GI) (Escherichia coli [27]): inactive |
| Nc1nc(-c2ccc(Nc3cc(=O)oc4ccccc34)cc2)cc(-c2ccc([N+](=O)[O-])cc2)n1 | 50 (≈ 111 µM) | 100 (≈ 222 µM) | 16 | 100 (≈ 222 µM) | 100 (≈ 222 µM) | 20 | 17 | 18 | 21 | 19 | – | 17 | 25 (≈ 55.4 µM) | 50 (≈ 111 µM) | 16 | 50 (≈ 111 µM) | 96 | 500 (≈ 1110 µM) | 100 (≈ 222 µM) | 25 (≈ 55.4 µM) | diameter of the inhibition zone (DIZ) (Proteus vulgaris [28]): 14 mm; diameter of the inhibition zone (DIZ) (Pseudomonas aeruginosa [29]): 16 mm; MIC (Pseudomonas aeruginosa [30]): 100 µg/mL (≈ 222 µM); MIC (Bacillus cereus [25]): 100 µg/mL (≈ 222 µM); diameter of the inhibition zone (DIZ) (Bacillus cereus [26]): 16 mm; diameter of the inhibition zone (DIZ) (Staphylococcus aureus [17]): 15 mm; MIC (Proteus vulgaris [31]): 100 µg/mL (≈ 222 µM) |
